Results from patent EP4722212A1, “NOVEL COMPOUND FOR INHIBITING PROTEIN KINASES AND PHARMACEUTICAL COMPOSITION COMPRISING SAME” (Magicbullettherapeutics Co., Ltd., priority 2023, dated 2024).
Where two headings read alike, the source gives them in different places.

Tests used:
Assay in all cases: Kinase panel
Type in all cases: biochemical
ACK1 = target: T1, ACK1 (Homo sapiens, UniProt Q07912); settings: ACK1, 1 µM; read-out: residual enzyme activity
T1 construct: purchased Reaction Biology (RBC)
In short: (§1)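 Residual enzyme activity is given for kinases screened biochemically with compound at a fixed 1 µM. Kinases showing ≤40% residual activity (≥60% inhibition) were identified as inhibited.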

BRSK2 = BRSK2 (Homo sapiens, UniProt Q8IWQ3); settings: BRSK2, 1 µM; read-out: residual enzyme activity
Chain of BRSK2 (Q8IWQ3 whole entry, species assumed): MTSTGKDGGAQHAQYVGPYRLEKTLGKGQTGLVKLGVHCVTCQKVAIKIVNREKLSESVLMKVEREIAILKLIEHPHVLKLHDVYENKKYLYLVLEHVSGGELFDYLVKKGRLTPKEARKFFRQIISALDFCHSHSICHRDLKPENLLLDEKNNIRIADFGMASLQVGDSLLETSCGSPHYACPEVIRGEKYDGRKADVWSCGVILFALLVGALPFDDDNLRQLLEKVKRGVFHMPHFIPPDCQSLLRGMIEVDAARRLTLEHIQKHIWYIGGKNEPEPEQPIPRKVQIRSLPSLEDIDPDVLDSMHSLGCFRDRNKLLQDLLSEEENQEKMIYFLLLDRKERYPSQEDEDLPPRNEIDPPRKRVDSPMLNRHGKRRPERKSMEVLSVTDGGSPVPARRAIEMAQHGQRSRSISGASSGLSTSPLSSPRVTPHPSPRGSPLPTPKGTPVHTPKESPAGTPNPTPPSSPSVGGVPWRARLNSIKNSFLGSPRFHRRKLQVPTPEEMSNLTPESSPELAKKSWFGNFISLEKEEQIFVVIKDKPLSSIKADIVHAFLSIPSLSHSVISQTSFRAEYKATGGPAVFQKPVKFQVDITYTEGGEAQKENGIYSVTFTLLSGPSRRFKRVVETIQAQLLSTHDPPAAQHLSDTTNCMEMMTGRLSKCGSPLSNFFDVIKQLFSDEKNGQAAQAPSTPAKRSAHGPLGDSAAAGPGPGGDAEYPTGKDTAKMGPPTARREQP
In short: as §1

C-SRC = C-SRC (Homo sapiens, UniProt P12931); settings: read-out: residual enzyme activity
In short: as §1

CAMK2B = CAMK2B (Homo sapiens, UniProt Q13554); settings: read-out: residual enzyme activity
In short: as §1

CDK18/CYCLIN Y (PCTK3) = CDK18/CYCLIN Y (PCTK3) (Homo sapiens, UniProt Q07002); settings: read-out: residual enzyme activity
In short: as §1

CDK5/P35 = CDK5/P35 (Homo sapiens, UniProt Q00535); settings: read-out: residual enzyme activity
In short: as §1

CDK9/CYCLIN T2 = CDK9/CYCLIN T2 (Homo sapiens, UniProt P50750); settings: CDK9/cyclin T2, 1 µM; read-out: residual enzyme activity
In short: as §1

CK1A1L = CK1A1L (Homo sapiens, UniProt Q8N752); settings: read-out: residual enzyme activity
Chain of CK1A1L (Q8N752 whole entry): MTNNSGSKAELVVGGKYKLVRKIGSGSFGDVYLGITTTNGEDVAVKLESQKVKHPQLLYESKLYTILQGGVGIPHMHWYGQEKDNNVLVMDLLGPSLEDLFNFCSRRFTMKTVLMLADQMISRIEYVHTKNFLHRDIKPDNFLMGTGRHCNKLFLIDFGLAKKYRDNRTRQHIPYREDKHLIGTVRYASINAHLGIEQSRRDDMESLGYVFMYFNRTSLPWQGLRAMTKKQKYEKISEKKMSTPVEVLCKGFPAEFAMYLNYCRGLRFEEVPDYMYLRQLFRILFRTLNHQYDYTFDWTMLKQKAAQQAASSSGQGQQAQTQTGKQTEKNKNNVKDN
In short: as §1

CKIEPSILON = CKIEPSILON (Homo sapiens, UniProt P49674); settings: read-out: residual enzyme activity
In short: as §1

DAPK1 = DAPK1 (Homo sapiens, UniProt P53355); settings: DAPK1, 1 µM; read-out: residual enzyme activity
In short: as §1

DMPK = DMPK (Homo sapiens, UniProt Q09013); settings: read-out: residual enzyme activity
Chain of DMPK (Q09013 whole entry, species assumed): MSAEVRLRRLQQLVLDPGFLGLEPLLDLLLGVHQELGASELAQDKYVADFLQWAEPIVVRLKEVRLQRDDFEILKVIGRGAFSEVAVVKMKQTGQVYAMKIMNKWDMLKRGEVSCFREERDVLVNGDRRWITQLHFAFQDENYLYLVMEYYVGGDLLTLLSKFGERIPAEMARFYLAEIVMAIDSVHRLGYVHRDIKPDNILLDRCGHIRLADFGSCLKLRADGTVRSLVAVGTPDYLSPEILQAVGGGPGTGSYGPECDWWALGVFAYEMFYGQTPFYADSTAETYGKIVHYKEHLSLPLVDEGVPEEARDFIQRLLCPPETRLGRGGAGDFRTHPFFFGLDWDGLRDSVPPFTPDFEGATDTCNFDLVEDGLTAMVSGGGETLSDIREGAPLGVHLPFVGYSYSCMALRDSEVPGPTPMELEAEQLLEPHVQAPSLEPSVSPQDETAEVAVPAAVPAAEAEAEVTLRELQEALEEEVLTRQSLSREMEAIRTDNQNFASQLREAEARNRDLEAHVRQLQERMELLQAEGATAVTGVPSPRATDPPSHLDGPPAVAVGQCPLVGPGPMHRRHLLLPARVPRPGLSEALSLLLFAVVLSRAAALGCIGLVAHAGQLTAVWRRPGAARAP
In short: as §1

ERK1 = ERK1 (Homo sapiens, UniProt P27361); settings: ERK1, 1 µM; read-out: residual enzyme activity
In short: as §1

GRK3 = GRK3 (Homo sapiens, UniProt P35626); settings: GRK3, 1 µM; read-out: residual enzyme activity
In short: as §1

HGK/MAP4K4 = HGK/MAP4K4 (Homo sapiens, UniProt O95819); settings: HGK/MAP4K4, 1 µM; read-out: residual enzyme activity
In short: as §1

HIPK3 = HIPK3 (Homo sapiens, UniProt Q9H422); settings: HIPK3, 1 µM; read-out: residual enzyme activity
In short: as §1

IGFIR = IGFIR (Homo sapiens, UniProt P08069); settings: read-out: residual enzyme activity
Chain of IGFIR (P08069 31-1367): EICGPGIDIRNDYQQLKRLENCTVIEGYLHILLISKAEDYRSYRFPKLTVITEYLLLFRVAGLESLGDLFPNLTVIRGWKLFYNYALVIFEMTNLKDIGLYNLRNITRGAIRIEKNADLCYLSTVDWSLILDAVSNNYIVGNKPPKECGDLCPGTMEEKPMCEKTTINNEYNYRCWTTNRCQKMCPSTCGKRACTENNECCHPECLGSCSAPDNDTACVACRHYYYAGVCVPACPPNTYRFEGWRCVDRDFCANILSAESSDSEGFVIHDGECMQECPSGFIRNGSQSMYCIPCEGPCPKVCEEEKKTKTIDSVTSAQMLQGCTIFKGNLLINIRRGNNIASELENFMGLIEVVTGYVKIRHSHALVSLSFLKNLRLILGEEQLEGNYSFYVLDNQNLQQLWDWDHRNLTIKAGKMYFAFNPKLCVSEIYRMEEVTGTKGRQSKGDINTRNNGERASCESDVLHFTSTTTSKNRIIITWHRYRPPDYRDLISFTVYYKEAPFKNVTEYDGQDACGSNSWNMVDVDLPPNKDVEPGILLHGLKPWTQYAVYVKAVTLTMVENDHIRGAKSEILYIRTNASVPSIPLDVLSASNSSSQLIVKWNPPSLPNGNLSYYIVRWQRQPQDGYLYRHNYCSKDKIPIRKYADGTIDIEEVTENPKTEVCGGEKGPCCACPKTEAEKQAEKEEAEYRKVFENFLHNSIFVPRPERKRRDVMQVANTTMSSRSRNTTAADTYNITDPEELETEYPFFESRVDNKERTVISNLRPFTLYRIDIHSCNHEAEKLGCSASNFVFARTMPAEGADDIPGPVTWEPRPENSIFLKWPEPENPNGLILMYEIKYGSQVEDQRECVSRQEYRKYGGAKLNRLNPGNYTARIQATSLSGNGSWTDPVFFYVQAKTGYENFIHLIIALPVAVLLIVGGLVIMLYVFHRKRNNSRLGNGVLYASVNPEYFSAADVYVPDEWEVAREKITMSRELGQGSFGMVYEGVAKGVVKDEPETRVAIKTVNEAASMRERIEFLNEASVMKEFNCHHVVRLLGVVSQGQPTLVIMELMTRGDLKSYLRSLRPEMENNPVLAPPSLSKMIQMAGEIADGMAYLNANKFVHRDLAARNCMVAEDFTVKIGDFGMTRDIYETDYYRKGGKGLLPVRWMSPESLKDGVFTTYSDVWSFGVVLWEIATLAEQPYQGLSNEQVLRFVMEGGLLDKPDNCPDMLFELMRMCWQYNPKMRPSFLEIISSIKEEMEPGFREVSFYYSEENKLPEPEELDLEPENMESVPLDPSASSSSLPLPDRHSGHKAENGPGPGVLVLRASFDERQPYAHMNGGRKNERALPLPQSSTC
In short: as §1

IRAK1 = IRAK1 (Homo sapiens, UniProt P51617); settings: IRAK1, 1 µM; read-out: residual enzyme activity
In short: as §1

IRAK4 = IRAK4 (Homo sapiens, UniProt Q9NWZ3); settings: IRAK4, 1 µM; read-out: residual enzyme activity
In short: as §1

MARK1 = MARK1 (Homo sapiens, UniProt Q9P0L2); settings: MARK1, 1 µM; read-out: residual enzyme activity
In short: as §1

MSSK1/STK23 = MSSK1/STK23 (Homo sapiens, UniProt Q9UPE1); settings: MSSK1/STK23, 1 µM; read-out: residual enzyme activity
Chain of MSSK1/STK23 (Q9UPE1 whole entry): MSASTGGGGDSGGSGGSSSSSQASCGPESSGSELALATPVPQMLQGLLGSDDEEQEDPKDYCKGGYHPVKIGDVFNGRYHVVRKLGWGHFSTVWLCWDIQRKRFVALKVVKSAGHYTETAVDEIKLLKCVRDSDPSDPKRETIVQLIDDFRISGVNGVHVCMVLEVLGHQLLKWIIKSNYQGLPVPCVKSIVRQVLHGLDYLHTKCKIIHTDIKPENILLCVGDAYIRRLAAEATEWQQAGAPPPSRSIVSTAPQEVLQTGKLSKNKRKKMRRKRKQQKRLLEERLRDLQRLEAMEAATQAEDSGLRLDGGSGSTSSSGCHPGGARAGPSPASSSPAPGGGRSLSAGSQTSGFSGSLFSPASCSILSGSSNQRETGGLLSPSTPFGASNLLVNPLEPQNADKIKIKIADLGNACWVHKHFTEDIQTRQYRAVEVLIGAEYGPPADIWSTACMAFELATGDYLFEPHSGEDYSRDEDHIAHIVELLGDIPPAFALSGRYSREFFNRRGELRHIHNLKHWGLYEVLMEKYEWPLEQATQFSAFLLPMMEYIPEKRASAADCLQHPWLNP
In short: as §1

MST2/STK3 = MST2/STK3 (Homo sapiens, UniProt Q13188); settings: MST2/STK3, 1 µM; read-out: residual enzyme activity
In short: as §1

NEK11 = NEK11 (Homo sapiens, UniProt Q8NG66); settings: NEK11, 1 µM; read-out: residual enzyme activity
In short: as §1

NEK3 = NEK3 (Homo sapiens, UniProt P51956); settings: NEK3, 1 µM; read-out: residual enzyme activity
In short: as §1

NEK6 = NEK6 (Homo sapiens, UniProt Q9HC98); settings: NEK6, 1 µM; read-out: residual enzyme activity
Chain of NEK6 (Q9HC98 whole entry, species assumed): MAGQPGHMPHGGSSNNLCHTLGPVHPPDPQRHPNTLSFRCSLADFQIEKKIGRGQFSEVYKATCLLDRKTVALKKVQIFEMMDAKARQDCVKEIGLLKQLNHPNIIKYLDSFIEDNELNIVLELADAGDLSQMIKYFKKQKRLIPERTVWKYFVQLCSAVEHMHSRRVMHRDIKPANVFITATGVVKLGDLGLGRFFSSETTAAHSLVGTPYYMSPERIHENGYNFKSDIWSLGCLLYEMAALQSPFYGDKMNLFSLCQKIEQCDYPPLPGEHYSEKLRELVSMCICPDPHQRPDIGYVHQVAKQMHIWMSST
In short: as §1

PKCNU/PRKD3 = PKCNU/PRKD3 (Homo sapiens, UniProt O94806); settings: PKCnu/PRKD3, 1 µM; read-out: residual enzyme activity
Chain of PKCNU/PRKD3 (O94806 whole entry): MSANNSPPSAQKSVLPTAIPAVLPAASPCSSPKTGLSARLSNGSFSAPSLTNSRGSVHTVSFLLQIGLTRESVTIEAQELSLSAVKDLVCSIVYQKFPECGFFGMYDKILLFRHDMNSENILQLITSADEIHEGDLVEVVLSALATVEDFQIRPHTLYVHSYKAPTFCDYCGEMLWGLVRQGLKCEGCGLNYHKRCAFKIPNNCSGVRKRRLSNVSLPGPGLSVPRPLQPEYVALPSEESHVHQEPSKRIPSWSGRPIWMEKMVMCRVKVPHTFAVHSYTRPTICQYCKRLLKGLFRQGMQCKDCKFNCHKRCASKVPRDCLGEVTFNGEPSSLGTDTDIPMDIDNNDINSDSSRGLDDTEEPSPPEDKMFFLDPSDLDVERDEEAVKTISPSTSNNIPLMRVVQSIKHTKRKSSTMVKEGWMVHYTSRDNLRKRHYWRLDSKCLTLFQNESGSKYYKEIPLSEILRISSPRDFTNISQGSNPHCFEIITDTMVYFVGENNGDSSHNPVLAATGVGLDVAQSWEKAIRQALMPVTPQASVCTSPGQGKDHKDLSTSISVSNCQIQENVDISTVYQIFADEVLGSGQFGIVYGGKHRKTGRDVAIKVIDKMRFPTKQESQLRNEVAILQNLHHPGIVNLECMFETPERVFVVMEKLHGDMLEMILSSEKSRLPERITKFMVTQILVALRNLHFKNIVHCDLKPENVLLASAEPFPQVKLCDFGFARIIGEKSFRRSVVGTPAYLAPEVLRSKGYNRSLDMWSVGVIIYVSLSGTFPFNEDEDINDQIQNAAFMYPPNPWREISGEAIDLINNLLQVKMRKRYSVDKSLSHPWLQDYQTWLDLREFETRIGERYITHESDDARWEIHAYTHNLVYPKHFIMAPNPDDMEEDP
In short: as §1

PKG1A = PKG1A (Homo sapiens, UniProt Q13976); settings: read-out: residual enzyme activity
In short: as §1

PKG1B = PKG1B (Homo sapiens, UniProt Q13976); settings: read-out: residual enzyme activity
In short: as §1

RIPK4 = RIPK4 (Homo sapiens, UniProt P57078); settings: RIPK4, 1 µM; read-out: residual enzyme activity
In short: as §1

RIPK5 = RIPK5 (Homo sapiens, UniProt Q6XUX3); settings: RIPK5, 1 µM; read-out: residual enzyme activity
In short: as §1

SYK = SYK (Homo sapiens, UniProt P43405); settings: read-out: residual enzyme activity
In short: as §1

TNIK = TNIK (Homo sapiens, UniProt Q9UKE5); settings: read-out: residual enzyme activity
In short: as §1

TXK = TXK (Homo sapiens, UniProt P42681); settings: read-out: residual enzyme activity
In short: as §1

VRK2 = VRK2 (Homo sapiens, UniProt Q86Y07); settings: VRK2, 1 µM; read-out: residual enzyme activity
In short: as §1

SMILES | remaining activity at 1 µM (ACK1) | remaining activity at 1 µM (BRSK2) | remaining activity at 1 µM (CDK18/CYCLIN Y (PCTK3)) | remaining activity at 1 µM (CDK9/CYCLIN T2) | remaining activity at 1 µM (DAPK1) | remaining activity at 1 µM (DMPK) | remaining activity at 1 µM (ERK1) | remaining activity at 1 µM (GRK3) | remaining activity at 1 µM (HGK/MAP4K4) | remaining activity at 1 µM (HIPK3) | remaining activity at 1 µM (IGFIR) | remaining activity at 1 µM (IRAK1) | remaining activity at 1 µM (IRAK4) | remaining activity at 1 µM (MARK1) | remaining activity at 1 µM (MSSK1/STK23) | remaining activity at 1 µM (MST2/STK3) | remaining activity at 1 µM (NEK11) | remaining activity at 1 µM (NEK3) | remaining activity at 1 µM (NEK6) | remaining activity at 1 µM (PKCNU/PRKD3) | further results
Cc1ccc(Nc2ncc3c(n2)C2(CC2)C(=O)N(c2cc(NC(=O)c4cccc(C(F)(F)F)c4)ccc2C)C3)cn1 [Compound 51, N-(4-methyl-3-(2'-((6-methylpyridin-3-yl)amino)-7'-oxo-5'H-spiro[cyclopropane-1,8'-pyrido[4,3-d]pyrimidine]-6'(7'H)-yl)phenyl)-3-(trifluoromethyl)benzamide] | ≤ 40% | > 40% | > 40% | > 40% | > 40% | > 40% | > 40% | > 40% | ≤ 40% | > 40% | > 40% | > 40% | > 40% | > 40% | > 40% | > 40% | ≤ 40% | > 40% | > 40% | > 40% | remaining activity at 1 µM (C-SRC; c-Src): ≤ 40%; remaining activity at 1 µM (CAMK2B; CAMK2b): > 40%; remaining activity at 1 µM (CDK5/P35; CDK5/p35, 1 µM): > 40%; remaining activity at 1 µM (CK1A1L; CKlalL): > 40%; remaining activity at 1 µM (CKIEPSILON; CKlepsilon): > 40%; remaining activity at 1 µM (PKG1A; PKGla): > 40%; remaining activity at 1 µM (PKG1B; PKG1b): > 40%; remaining activity at 1 µM (RIPK4): > 40%; remaining activity at 1 µM (RIPK5): > 40%; remaining activity at 1 µM (SYK): ≤ 40%; remaining activity at 1 µM (TNIK): ≤ 40%; remaining activity at 1 µM (TXK): ≤ 40%; remaining activity at 1 µM (VRK2): > 40%
Cc1cn(-c2cc(C(=O)Nc3ccc(C)c(N4Cc5cnc(NC6CC6)nc5C5(CC5)C4=O)c3)cc(C(F)(F)F)c2)cn1 [Compound 8, N-(3-(2'-(cyclopropylamino)-7'-oxo-5'H-spiro[cyclopropane-1,8'-pyrido[4,3-d]pyrimidine]-6'(7'H)-yl)-4-methylphenyl)-3-(4-methyl-1H-imidazol-1-yl)-5-(trifluoromethyl)benzamide] | ≤ 40% | > 40% | > 40% | > 40% | > 40% | > 40% | > 40% | > 40% | ≤ 40% | > 40% | > 40% | > 40% | > 40% | > 40% | > 40% | > 40% | > 40% | > 40% | > 40% | > 40% | remaining activity at 1 µM (C-SRC; C-SRC): ≤ 40%; remaining activity at 1 µM (CAMK2B; CAMK2B): > 40%; remaining activity at 1 µM (CDK5/P35; CDK5/P35, 1 µM): > 40%; remaining activity at 1 µM (CK1A1L; CK1A1L): > 40%; remaining activity at 1 µM (CKIEPSILON; CKIEPSILON): > 40%; remaining activity at 1 µM (PKG1A; PKG1A): > 40%; remaining activity at 1 µM (PKG1B; PKG1B): > 40%; remaining activity at 1 µM (RIPK4): > 40%; remaining activity at 1 µM (RIPK5): > 40%; remaining activity at 1 µM (SYK): > 40%; remaining activity at 1 µM (TNIK): ≤ 40%; remaining activity at 1 µM (TXK): ≤ 40%; remaining activity at 1 µM (VRK2): > 40%
